Paper PMC11073699, “Odorant receptors for floral- and plant-derived volatiles in the yellow fever mosquito, Aedes aegypti (Diptera: Culicidae)” (PLOS ONE, 2024)
“And” between values parts separate entries of the source, which are not always exact repeats. Equal values may be shown once.

What was measured:
Type in all cases: cell-based
AaegOR13 = target: T1, AaegOR13 (Aedes aegypti, UniProt Q16Z13); test: Two-electrode voltage clamp of Xenopus laevis oocytes expressing AaegOR13/Orco (blends, unitary compounds, concentration-response); conditions: unitary compounds; for Raw data (Responses in nA), unitary compounds of Indoles 1, Alcohols 1, Alcohols 3 / Normalized response, unitary compounds of Indoles 1, Alcohols 1, Alcohols 3: individual oocytes 1-7; for Normalized response, unitary compounds, Average: average of oocytes 1-7; for Normalized response, unitary compounds of Indoles 1, Alcohols 1, Alcohols 3: normalized per oocyte
T1 sequence (Q16Z13 1-389): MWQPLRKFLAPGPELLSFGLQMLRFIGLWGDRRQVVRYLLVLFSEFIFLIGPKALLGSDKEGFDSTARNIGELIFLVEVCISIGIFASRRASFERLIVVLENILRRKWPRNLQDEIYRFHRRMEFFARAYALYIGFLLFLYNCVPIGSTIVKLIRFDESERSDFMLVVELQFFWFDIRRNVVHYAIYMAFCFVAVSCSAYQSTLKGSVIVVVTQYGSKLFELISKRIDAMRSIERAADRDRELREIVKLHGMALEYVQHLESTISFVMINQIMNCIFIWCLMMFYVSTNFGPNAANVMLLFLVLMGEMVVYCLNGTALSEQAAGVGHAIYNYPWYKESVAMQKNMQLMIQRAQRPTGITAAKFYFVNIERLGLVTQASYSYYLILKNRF
T1 sequence (Q178U6 1-478 partner): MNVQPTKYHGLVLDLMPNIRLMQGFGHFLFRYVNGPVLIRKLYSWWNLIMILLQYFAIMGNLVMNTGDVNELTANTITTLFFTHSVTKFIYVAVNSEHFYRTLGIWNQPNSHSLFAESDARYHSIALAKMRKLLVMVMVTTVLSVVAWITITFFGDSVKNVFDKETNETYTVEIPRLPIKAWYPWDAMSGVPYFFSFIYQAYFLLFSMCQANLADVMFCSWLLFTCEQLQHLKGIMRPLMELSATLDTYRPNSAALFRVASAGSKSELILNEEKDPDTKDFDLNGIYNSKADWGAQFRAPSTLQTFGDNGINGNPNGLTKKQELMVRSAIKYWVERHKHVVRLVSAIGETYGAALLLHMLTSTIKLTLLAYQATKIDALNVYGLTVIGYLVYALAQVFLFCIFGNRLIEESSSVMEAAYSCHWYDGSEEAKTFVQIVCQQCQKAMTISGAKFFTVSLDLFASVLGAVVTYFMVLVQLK
Text: (§1) The coding regions of ten AaegOR genes of interest (S3 File) and AaegOrco were synthesized by Twist Bioscience (San Francisco, CA, USA) and cloned into the pENTR plasmid. The Gateway LR directional cloning system (Invitrogen Corp., Carlsbad, CA, USA) was utilized to subclone AaegOR coding regions into the pSP64t-RFA oocyte expression plasmid. Plasmids were purified using the GeneJet Plasmid Miniprep Kit (ThermoFisher Scientific, Waltham, MA, USA). Purified plasmids were sequenced in both directions to confirm coding regions.
(§2) Chemical compounds (S6 File) used in the deorphanization of AaegORs were purchased from Acros Organics (Morris, NJ, USA), Alfa Aesar (Ward Hill, MA, USA), and ThermoFisher Scientific (Waltham, MA, USA) at the highest purity available. Compounds were stored as 1M stocks in 100% DMSO. Serial dilutions of each compound were prepared in 10% DMSO and blended by chemical class.
(§3) pSP64t-RFA: AaegOR clones were linearized using Xbal, and cRNAs were synthesized using the mMESSAGE mMACHINE ® SP6 kit (Life Technologies, Carlsbad, CA, USA). Xenopus laevis stage V-VII oocytes purchased from Xenopus1 (Dexter, MI, USA) were stored at 18°C in Incubation medium (ND96 96 with 5% dialyzed horse serum, 50μg/mL gentamycin, 100μg/mL streptomycin, 100μg/mL penicillin, and 550μg/mL sodium pyruvate). 30nL of cRNA was injected into multiple oocytes using a microinjection syringe pump (World Precision Instruments, Sarasota, FL, USA) maintained at 18°C for 48–72 hrs. Odorant blends were perfused across individual oocytes for 10–15 seconds, held at a resting membrane potential of -80 mV using an OC-725C oocyte clamp (Warner Instruments, LLC, Hamden, CT, USA). Induced currents were measured indirectly using the two-electrode voltage clamp technique (TEVC). Following each stimulus, currents were allowed to return to baseline before further stimulation. Data was captured using the Digidata 1550 B digitizer and PClamp10 software (Molecular Devices, San Jose, CA, USA). Concentration-response curves were generated by perfusing unitary odorants over oocytes at increasing concentrations from [10^-3M] to [10^-9M]. Data were analyzed using GraphPad Prism 8 (GraphPad Software Inc., La Jolla, CA, USA). At least two biological replicates were conducted at each concentration and for each compound. Data for at least seven oocytes responding to each compound was analyzed (S7 File).

AaegOR8 = target: T2, AaegOR8 (Aedes aegypti, UniProt Q16MN0); test: Two-electrode voltage clamp of Xenopus laevis oocytes expressing AaegOR8/Orco (blends, unitary compounds, concentration-response); conditions: Alcohols 2 unitary compounds
T2 sequence (Q16MN0 32-422): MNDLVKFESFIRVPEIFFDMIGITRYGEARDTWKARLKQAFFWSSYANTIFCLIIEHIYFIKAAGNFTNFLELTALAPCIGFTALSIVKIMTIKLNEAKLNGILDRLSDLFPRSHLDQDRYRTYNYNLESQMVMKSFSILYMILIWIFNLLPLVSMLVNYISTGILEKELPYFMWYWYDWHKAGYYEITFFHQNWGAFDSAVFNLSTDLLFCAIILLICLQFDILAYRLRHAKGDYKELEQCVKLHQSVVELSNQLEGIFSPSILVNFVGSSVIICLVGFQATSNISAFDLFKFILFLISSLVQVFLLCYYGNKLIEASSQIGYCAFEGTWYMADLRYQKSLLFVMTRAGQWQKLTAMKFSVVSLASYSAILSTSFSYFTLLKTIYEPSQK
T2 sequence (Q178U6 1-478 partner): T1 sequence (Q178U6 1-478 partner)
Text: as §1, §2, §3

AaegOR71 = target: T3, AaegOR71 (Aedes aegypti, UniProt A0A3S7SHD4); test: Two-electrode voltage clamp of Xenopus laevis oocytes expressing AaegOR71/Orco (blends, unitary compounds, concentration-response); conditions: Indoles 2 unitary compounds
T3 sequence (A0A3S7SHD4 1-415): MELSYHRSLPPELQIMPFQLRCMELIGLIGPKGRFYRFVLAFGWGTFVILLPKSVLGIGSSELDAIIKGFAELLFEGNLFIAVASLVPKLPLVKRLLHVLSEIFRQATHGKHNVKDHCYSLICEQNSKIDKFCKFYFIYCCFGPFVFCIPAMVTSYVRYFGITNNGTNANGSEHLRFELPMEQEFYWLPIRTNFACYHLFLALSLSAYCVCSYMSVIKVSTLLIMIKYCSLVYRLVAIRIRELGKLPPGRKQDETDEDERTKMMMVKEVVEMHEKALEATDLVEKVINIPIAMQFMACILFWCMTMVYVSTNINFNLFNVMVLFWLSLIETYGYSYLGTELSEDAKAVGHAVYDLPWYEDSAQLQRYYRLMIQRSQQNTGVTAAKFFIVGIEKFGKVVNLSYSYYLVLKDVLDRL
T3 sequence (Q178U6 1-478 partner): T1 sequence (Q178U6 1-478 partner)
Text: as §1, §2, §3

AaegOR6 = target: T4, AaegOR6 (Aedes aegypti, UniProt A0A1S4G757); test: Two-electrode voltage clamp of Xenopus laevis oocytes expressing AaegOR6/Orco (blends, unitary compounds, concentration-response); conditions: Indoles 2 unitary compounds
T4 sequence (A0A1S4G757 1-398): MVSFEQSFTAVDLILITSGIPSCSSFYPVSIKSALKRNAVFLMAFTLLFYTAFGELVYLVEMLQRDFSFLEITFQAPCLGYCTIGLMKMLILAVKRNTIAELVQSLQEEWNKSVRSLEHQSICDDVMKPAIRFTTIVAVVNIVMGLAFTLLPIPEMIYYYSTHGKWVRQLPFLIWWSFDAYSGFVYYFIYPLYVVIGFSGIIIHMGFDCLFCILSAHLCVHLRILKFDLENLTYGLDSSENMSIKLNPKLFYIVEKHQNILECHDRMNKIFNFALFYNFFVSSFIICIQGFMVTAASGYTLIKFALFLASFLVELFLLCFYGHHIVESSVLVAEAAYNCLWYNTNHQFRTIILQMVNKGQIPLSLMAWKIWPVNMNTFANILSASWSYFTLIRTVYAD
T4 sequence (Q178U6 1-478 partner): T1 sequence (Q178U6 1-478 partner)
Text: as §1, §2, §3

Compound	Raw data (Responses in nA), unitary compounds of Indoles 1, Alcohols 1, Alcohols 3 (AaegOR13)	Raw Data (Response in nA) Oocyte 1 (AaegOR71) [nA]	Raw Data (Response in nA) Oocyte 2 (AaegOR71) [nA]	Raw Data (Response in nA) Oocyte 3 (AaegOR71) [nA]	Raw Data (Response in nA) Oocyte 4 (AaegOR71) [nA]	Raw Data (Response in nA) Oocyte 5 (AaegOR71) [nA]	Raw Data (Response in nA) Oocyte 6 (AaegOR71) [nA]	Raw Data (Response in nA) Oocyte 7 (AaegOR71) [nA]	Raw Data (Response in nA) Oocyte 8 (AaegOR71) [nA]	Raw data (Responses in nA) Oocyte 1 (AaegOR6) [nA]	Raw data (Responses in nA) Oocyte 2 (AaegOR6) [nA]	Raw data (Responses in nA) Oocyte 3 (AaegOR6) [nA]	Raw data (Responses in nA) Oocyte 4 (AaegOR6) [nA]	Raw data (Responses in nA) Oocyte 5 (AaegOR6) [nA]	Raw data (Responses in nA) Oocyte 6 (AaegOR6) [nA]	Raw data (Responses in nA) Oocyte 7 (AaegOR6) [nA]	Raw data (Responses in nA) Oocyte 8 (AaegOR6) [nA]	also measured
CC(C)(C)c1ccc(O)cc1 [4-tert-butylphenol]	10.0 nA and 305.0 nA and 70.0 nA and 85.0 nA and 150.0 nA and 90.0 nA and 55.0 nA																	
C=CC(C)(O)CCC=C(C)C (single isomer, unassigned; (+)) [(+) Linalool]	0.0 nA																	Normalized response, unitary compounds, Average (AaegOR13): 0.0; Normalized response, unitary compounds of Indoles 1, Alcohols 1, Alcohols 3 (AaegOR13): 0.0
CC1CCCC2(C)CCCCC12O (stereo not drawn) [Geosmin]																		Raw data (Responses in nA) Oocyte 1 (AaegOR8; oocyte 1): 0.0 nA; Raw data (Responses in nA) Oocyte 2 (AaegOR8; oocyte 2): 0.0 nA; Raw data (Responses in nA) Oocyte 3 (AaegOR8; oocyte 3): 0.0 nA; Raw data (Responses in nA) Oocyte 4 (AaegOR8; oocyte 4): 0.0 nA; Raw data (Responses in nA) Oocyte 5 (AaegOR8; oocyte 5): 0.0 nA; Raw data (Responses in nA) Oocyte 6 (AaegOR8; oocyte 6): 0.0 nA; Raw data (Responses in nA) Oocyte 7 (AaegOR8; oocyte 7): 0.0 nA; Raw data (Responses in nA) Oocyte 8 (AaegOR8; oocyte 8): 0.0 nA
O=C(O)Cc1c[nH]c2ccccc12 [1H-Indole-3-acetic acid]		0	20	0	15	20	60	15	60	10.0	10.0	10.0	0.0	10.0	0.0	0.0	0.0	
C=CC(C)(O)CCC=C(C)C (single isomer, unassigned; (-)) [(-) Linalool]	0.0 nA (6×) and 5.0 nA																	Normalized response, unitary compounds, Average (AaegOR13): 0.26; Normalized response, unitary compounds of Indoles 1, Alcohols 1, Alcohols 3 (AaegOR13): 0.0 (6×) and 1.8
c1ccc2ncccc2c1 [Quinoline]		900	2210	330	1050	300	760	210	250	0.0	0.0	0.0	0.0	0.0	10.0	10.0	0.0	
O=Cc1c[nH]c2ccccc12 [indole-3-carboxyaldehyde]	0.0 nA (2×) and 5.0 nA (5×)																	
Nc1cccc2cnccc12 [5-Aminoisoquinoline]		130	200	40	40	0	10	0	10	0.0	0.0	0.0	0.0	0.0	0.0	0.0	0.0	
O=C1Cc2ccccc2N1 [Oxindole]		0	20	0	10	0	10	5	20	0.0	0.0	0.0	0.0	0.0	0.0	0.0	10.0	
O=C1Nc2ccccc2C1=O [Isatin]		150	0	0	0	0	0	10	0	0.0	0.0	10.0	0.0	0.0	0.0	0.0	0.0	
